Measured values as given in the supplement of paper PMC10307832.

Tests used:
Test in all cases: relative viability (nuclei count vs DMSO), 5 days (fraction); higher = more cells survive
Axitinib + Alpelisib = compound: CNC(=O)c1ccccc1Sc1ccc2c(/C=C/c3ccccn3)n[nH]c2c1 [Axitinib] + Cc1nc(NC(=O)N2CCC[C@H]2C(N)=O)sc1-c1ccnc(C(C)(C)C(F)(F)F)c1 [Alpelisib] (partner 2 µM)
Procedure, shortened: (§1)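 Lung cancer cell lines in 1536-well plates got either a single drug or a fixed anchor-drug dose together with five library-drug doses (not always all listed) in √10 steps, by pin tool, on the day after seeding. Nuclei were counted after 5 days, and relative viability is the treated-to-vehicle ratio of nuclei counts. Values are medians of duplicate plates.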

Axitinib + Decitabine = compound: CNC(=O)c1ccccc1Sc1ccc2c(/C=C/c3ccccn3)n[nH]c2c1 [Axitinib] + Nc1ncn([C@H]2C[C@H](O)[C@@H](CO)O2)c(=O)n1 [Decitabine] (partner 2 µM)
Procedure, shortened: as §1

Bemcentinib + Vorinostat = compound: Nc1nc(Nc2ccc3c(c2)CC[C@@H](N2CCCC2)CC3)nn1-c1cc2c(nn1)-c1ccccc1CCC2 [Bemcentinib] + O=C(CCCCCCC(=O)Nc1ccccc1)NO [Vorinostat] (partner 1 µM)
Procedure, shortened: as §1

[1] = compound: Nc1nc(Nc2ccc3c(c2)CC[C@@H](N2CCCC2)CC3)nn1-c1cc2c(nn1)-c1ccccc1CCC2 [Bemcentinib] + CC(=O)c1c(C)c2cnc(Nc3ccc(N4CCNCC4)cn3)nc2n(C2CCCC2)c1=O [Palbociclib] (partner 0.5 µM)
Procedure, shortened: as §1

With NCI-H520 the relative viability (Axitinib + Alpelisib; first compound 0.005 µM) was 0.923, the relative viability (Axitinib + Alpelisib; first compound 0.01581 µM) was 0.951 and the relative viability (Axitinib + Alpelisib; first compound 0.05 µM) was 0.91. It also gave a relative viability (Axitinib + Alpelisib; first compound 0.1581 µM) of 0.784, a relative viability (Axitinib + Alpelisib; first compound 0.5 µM) of 0.899 and a relative viability (Axitinib + Decitabine; first compound 0.005 µM) of 0.527. The relative viability (Axitinib + Decitabine; first compound 0.01581 µM) was 0.422, the relative viability (Axitinib + Decitabine; first compound 0.05 µM) was 0.509 and the relative viability (Axitinib + Decitabine; first compound 0.1581 µM) was 0.449. For the same cell line, the relative viability (Axitinib + Decitabine; first compound 0.5 µM) was 0.481, the relative viability (Bemcentinib + Vorinostat; first compound 0.04 µM) was 0.678 and the relative viability (Bemcentinib + Vorinostat; first compound 0.1265 µM) was 0.902. It also gave a relative viability (Bemcentinib + Vorinostat; first compound 0.4 µM) of 0.83, a relative viability (Bemcentinib + Vorinostat; first compound 1.265 µM) of 0.626 and a relative viability (Bemcentinib + Vorinostat; first compound 4 µM) of 0.761. For the same cell line, the relative viability ([1]; first compound 0.04 µM) was 0.235, the relative viability ([1]; first compound 0.1265 µM) was 0.198 and the relative viability ([1]; first compound 0.4 µM) was 0.265. The relative viability ([1]; first compound 1.265 µM) was 0.221 and the relative viability ([1]; first compound 4 µM) was 0.352.
Work on BEN yielded a relative viability (Axitinib + Alpelisib; first compound 0.005 µM) of 0.993, a relative viability (Axitinib + Alpelisib; first compound 0.01581 µM) of 1.04 and a relative viability (Axitinib + Alpelisib; first compound 0.05 µM) of 0.928. For the same cell line, the relative viability (Axitinib + Alpelisib; first compound 0.1581 µM) was 1.04, the relative viability (Axitinib + Alpelisib; first compound 0.5 µM) was 0.908 and the relative viability (Axitinib + Decitabine; first compound 0.005 µM) was 0.795. The relative viability (Axitinib + Decitabine; first compound 0.01581 µM) was 0.758, the relative viability (Axitinib + Decitabine; first compound 0.05 µM) was 0.771 and the relative viability (Axitinib + Decitabine; first compound 0.1581 µM) was 0.782. It also gave a relative viability (Axitinib + Decitabine; first compound 0.5 µM) of 0.635, a relative viability (Bemcentinib + Vorinostat; first compound 0.04 µM) of 0.567 and a relative viability (Bemcentinib + Vorinostat; first compound 0.1265 µM) of 0.627. It also gave a relative viability (Bemcentinib + Vorinostat; first compound 0.4 µM) of 0.562, a relative viability (Bemcentinib + Vorinostat; first compound 1.265 µM) of 0.56 and a relative viability (Bemcentinib + Vorinostat; first compound 4 µM) of 0.6. It also gave a relative viability ([1]; first compound 0.04 µM) of 0.488, a relative viability ([1]; first compound 0.1265 µM) of 0.498 and a relative viability ([1]; first compound 0.4 µM) of 0.464. The relative viability ([1]; first compound 1.265 µM) was 0.432 and the relative viability ([1]; first compound 4 µM) was 0.514.
LK-2 gave a relative viability (Axitinib + Alpelisib; first compound 0.005 µM) of 1.02, a relative viability (Axitinib + Alpelisib; first compound 0.01581 µM) of 0.853 and a relative viability (Axitinib + Alpelisib; first compound 0.05 µM) of 0.838. For the same cell line, the relative viability (Axitinib + Alpelisib; first compound 0.1581 µM) was 0.902, the relative viability (Axitinib + Alpelisib; first compound 0.5 µM) was 0.828 and the relative viability (Axitinib + Decitabine; first compound 0.005 µM) was 0.262. The relative viability (Axitinib + Decitabine; first compound 0.01581 µM) was 0.245, the relative viability (Axitinib + Decitabine; first compound 0.05 µM) was 0.298 and the relative viability (Axitinib + Decitabine; first compound 0.1581 µM) was 0.347. The relative viability (Axitinib + Decitabine; first compound 0.5 µM) was 0.222, the relative viability (Bemcentinib + Vorinostat; first compound 0.04 µM) was 0.497 and the relative viability (Bemcentinib + Vorinostat; first compound 0.1265 µM) was 0.253. It also gave a relative viability (Bemcentinib + Vorinostat; first compound 0.4 µM) of 0.171, a relative viability (Bemcentinib + Vorinostat; first compound 1.265 µM) of 0.281 and a relative viability (Bemcentinib + Vorinostat; first compound 4 µM) of 0.365. For the same cell line, the relative viability ([1]; first compound 0.04 µM) was 0.78, the relative viability ([1]; first compound 0.1265 µM) was 0.75 and the relative viability ([1]; first compound 0.4 µM) was 0.934. The relative viability ([1]; first compound 1.265 µM) was 0.728 and the relative viability ([1]; first compound 4 µM) was 0.665.
NCI-H2087 gave a relative viability (Axitinib + Alpelisib; first compound 0.005 µM) of 1.18, a relative viability (Axitinib + Alpelisib; first compound 0.01581 µM) of 1.04 and a relative viability (Axitinib + Alpelisib; first compound 0.05 µM) of 0.993. It also gave a relative viability (Axitinib + Alpelisib; first compound 0.1581 µM) of 1.07, a relative viability (Axitinib + Alpelisib; first compound 0.5 µM) of 1.22 and a relative viability (Axitinib + Decitabine; first compound 0.005 µM) of 0.289. The relative viability (Axitinib + Decitabine; first compound 0.01581 µM) was 0.254, the relative viability (Axitinib + Decitabine; first compound 0.05 µM) was 0.22 and the relative viability (Axitinib + Decitabine; first compound 0.1581 µM) was 0.186. For the same cell line, the relative viability (Axitinib + Decitabine; first compound 0.5 µM) was 0.293, the relative viability (Bemcentinib + Vorinostat; first compound 0.04 µM) was 0.567 and the relative viability (Bemcentinib + Vorinostat; first compound 0.1265 µM) was 0.836. The relative viability (Bemcentinib + Vorinostat; first compound 0.4 µM) was 1.1, the relative viability (Bemcentinib + Vorinostat; first compound 1.265 µM) was 0.665 and the relative viability (Bemcentinib + Vorinostat; first compound 4 µM) was 0.678. The relative viability ([1]; first compound 0.04 µM) was 0.235, the relative viability ([1]; first compound 0.1265 µM) was 0.24 and the relative viability ([1]; first compound 0.4 µM) was 0.228. The relative viability ([1]; first compound 1.265 µM) was 0.273 and the relative viability ([1]; first compound 4 µM) was 0.198.
In the case of NCI-H661, the relative viability (Axitinib + Alpelisib; first compound 0.005 µM) is reported as 0.613, the relative viability (Axitinib + Alpelisib; first compound 0.01581 µM) is reported as 0.509 and the relative viability (Axitinib + Alpelisib; first compound 0.05 µM) is reported as 1.02. It also gave a relative viability (Axitinib + Alpelisib; first compound 0.1581 µM) of 0.862, a relative viability (Axitinib + Alpelisib; first compound 0.5 µM) of 0.511 and a relative viability (Axitinib + Decitabine; first compound 0.005 µM) of 0.594. It also gave a relative viability (Axitinib + Decitabine; first compound 0.01581 µM) of 0.503, a relative viability (Axitinib + Decitabine; first compound 0.05 µM) of 0.588 and a relative viability (Axitinib + Decitabine; first compound 0.1581 µM) of 0.549. For the same cell line, the relative viability (Axitinib + Decitabine; first compound 0.5 µM) was 0.597, the relative viability (Bemcentinib + Vorinostat; first compound 0.04 µM) was 0.774 and the relative viability (Bemcentinib + Vorinostat; first compound 0.1265 µM) was 0.778. For the same cell line, the relative viability (Bemcentinib + Vorinostat; first compound 0.4 µM) was 0.849, the relative viability (Bemcentinib + Vorinostat; first compound 1.265 µM) was 0.789 and the relative viability (Bemcentinib + Vorinostat; first compound 4 µM) was 0.838. For the same cell line, the relative viability ([1]; first compound 0.04 µM) was 0.384, the relative viability ([1]; first compound 0.1265 µM) was 0.385 and the relative viability ([1]; first compound 0.4 µM) was 0.439. It also gave a relative viability ([1]; first compound 1.265 µM) of 0.375 and a relative viability ([1]; first compound 4 µM) of 0.382.
In the case of NCI-H2170, the relative viability (Axitinib + Alpelisib; first compound 0.005 µM) is reported as 0.849, the relative viability (Axitinib + Alpelisib; first compound 0.01581 µM) is reported as 0.787 and the relative viability (Axitinib + Alpelisib; first compound 0.05 µM) is reported as 0.817. For the same cell line, the relative viability (Axitinib + Alpelisib; first compound 0.1581 µM) was 0.892, the relative viability (Axitinib + Alpelisib; first compound 0.5 µM) was 1.03 and the relative viability (Axitinib + Decitabine; first compound 0.005 µM) was 0.483. The relative viability (Axitinib + Decitabine; first compound 0.01581 µM) was 0.439, the relative viability (Axitinib + Decitabine; first compound 0.05 µM) was 0.411 and the relative viability (Axitinib + Decitabine; first compound 0.1581 µM) was 0.48. It also gave a relative viability (Axitinib + Decitabine; first compound 0.5 µM) of 0.488, a relative viability (Bemcentinib + Vorinostat; first compound 0.04 µM) of 0.732 and a relative viability (Bemcentinib + Vorinostat; first compound 0.1265 µM) of 0.855. The relative viability (Bemcentinib + Vorinostat; first compound 0.4 µM) was 0.992, the relative viability (Bemcentinib + Vorinostat; first compound 1.265 µM) was 0.745 and the relative viability (Bemcentinib + Vorinostat; first compound 4 µM) was 0.897. The relative viability ([1]; first compound 0.04 µM) was 0.394, the relative viability ([1]; first compound 0.1265 µM) was 0.415 and the relative viability ([1]; first compound 0.4 µM) was 0.395. The relative viability ([1]; first compound 1.265 µM) was 0.422 and the relative viability ([1]; first compound 4 µM) was 0.407.
In the case of LCLC-103H, the relative viability (Axitinib + Alpelisib; first compound 0.005 µM) is reported as 0.987, the relative viability (Axitinib + Alpelisib; first compound 0.01581 µM) is reported as 0.922 and the relative viability (Axitinib + Alpelisib; first compound 0.05 µM) is reported as 0.845. For the same cell line, the relative viability (Axitinib + Alpelisib; first compound 0.1581 µM) was 0.621, the relative viability (Axitinib + Alpelisib; first compound 0.5 µM) was 0.999 and the relative viability (Axitinib + Decitabine; first compound 0.005 µM) was 0.738. The relative viability (Axitinib + Decitabine; first compound 0.01581 µM) was 0.719, the relative viability (Axitinib + Decitabine; first compound 0.05 µM) was 0.738 and the relative viability (Axitinib + Decitabine; first compound 0.1581 µM) was 0.801. It also gave a relative viability (Axitinib + Decitabine; first compound 0.5 µM) of 0.797, a relative viability (Bemcentinib + Vorinostat; first compound 0.04 µM) of 0.774 and a relative viability (Bemcentinib + Vorinostat; first compound 0.1265 µM) of 0.826. It also gave a relative viability (Bemcentinib + Vorinostat; first compound 0.4 µM) of 0.8, a relative viability (Bemcentinib + Vorinostat; first compound 1.265 µM) of 0.783 and a relative viability (Bemcentinib + Vorinostat; first compound 4 µM) of 0.883. It also gave a relative viability ([1]; first compound 0.04 µM) of 0.459, a relative viability ([1]; first compound 0.1265 µM) of 0.438 and a relative viability ([1]; first compound 0.4 µM) of 0.522. For the same cell line, the relative viability ([1]; first compound 1.265 µM) was 0.497 and the relative viability ([1]; first compound 4 µM) was 0.554.
